Results: the Biogen ADME set (Fang et al. 2023)
≈ marks a conversion by molar mass, not a printed value.

Conditions: for aqueous solubility: pH 6.8

| Structure (SMILES) | intrinsic clearance, human liver microsomes [mL/min/kg] | intrinsic clearance, rat liver microsomes [mL/min/kg] | MDR1-MDCK efflux ratio | aqueous solubility [µg/mL] | fraction unbound, human plasma | fraction unbound, rat plasma |
| --- | --- | --- | --- | --- | --- | --- |
| O=c1[nH]c(=O)n([C@H]2C[C@H](O)[C@@H](CO)O2)cc1C(F)(F)F | 41.9 | ≤ 10.7 | – | – | – | – |
| COc1ccc2cc(C(=O)NCc3nnc4n3CCCCC4)ccc2c1 | 13.8 | 655 | 35.2 | – | – | – |
| CCNC(=O)c1noc(-c2cc(C(C)C)c(O)cc2O)c1-c1ccc(CN2CCOCC2)cc1 | 38.8 | 351 | – | – | – | – |
| NS(=O)(=O)C#Cc1ccccc1 | 10.6 | ≤ 10.7 | – | – | – | – |
| Cc1ccnc(-n2nccc2NC(=O)N2CCCN(C)CC2)c1 | 13.2 | 169 | 2.95 | 31.7 (≈ 101 µM) | – | – |
| CNC(=O)c1ccc(N(C)C2CCC2)nn1 | 24.8 | 40.3 | 0.586 | 47.3 (≈ 215 µM) | – | – |
| Cc1cc(CSCc2c(C)noc2C)no1 | 130 | 1910 | – | – | – | – |
| Cc1cccc(NC(=O)CN2CCCN(c3ccc(C(F)(F)F)cn3)CC2)c1 | 150 | 724 | 0.951 | 25.7 (≈ 65.5 µM) | – | – |
| O=c1c(-n2ccnn2)c[nH]n1-c1cc(N2CCOCC2)ncn1 | ≤ 4.74 | 45.8 | 1.76 | 30.7 (≈ 97.7 µM) | – | – |
| Oc1cccc(/C=C/c2nc3ccccc3o2)c1 | – | – | 0.192 | 0.7 (≈ 2.95 µM) | – | – |
| CC(C)(C)CC(=O)N1CCC(OCCCN)CC1 | ≤ 4.74 | ≤ 10.7 | 8.05 | 50.6 (≈ 198 µM) | – | – |
| NC1CCCC1C(=O)N1CCC(c2c[nH]c3ncccc23)CC1 (stereo not given) | ≤ 4.74 | – | 6.76 | – | 0.521 | – |
| CN(C)C(=O)COc1ccc(N)c(F)c1 | ≤ 4.74 | ≤ 10.7 | 0.766 | 43.8 (≈ 206 µM) | – | – |
| COc1cc(NC(=O)c2ccc(F)cc2C)ncn1 | 8.37 | 49.1 | 0.558 | 15.8 (≈ 60.3 µM) | – | – |
| CCn1ncnc1-c1[nH]cnc1-c1ccccc1 | ≤ 4.74 | 48 | 2.19 | 23 (≈ 96.2 µM) | – | – |
| Cc1nc([C@H]2CC[C@H](CNC(=O)CN3CCC(c4ccccc4)CC3)CC2)ccc1C(N)=O | 37.3 | 390 | 14.9 | 70.2 (≈ 156 µM) | – | – |
| COc1nn(C)cc1C(=O)Nc1cccc(-c2cnc3n2CCC3)c1 | 10.5 | 70.6 | 9.53 | 36.2 (≈ 107 µM) | 0.0736 | 0.0485 |
| CN(Cc1cccnc1)Cc1ccc(C#N)o1 | 9.78 | 69.7 | 0.648 | 30.7 (≈ 135 µM) | – | – |
| COc1cccc(-c2nnn(Cc3cc(F)cc4cccnc34)n2)c1 | – | – | 0.486 | 0.14 (≈ 0.417 µM) | – | – |
| O=C(Nc1ccc(C(=O)O)c(O)c1)c1ccc(NC(=O)c2cccs2)cc1 | ≤ 4.74 | ≤ 10.7 | 0.572 | 54.3 (≈ 142 µM) | – | – |
| CCn1nc(C2CCCC2)nc1-c1ccncc1 | 24.6 | 370 | 0.716 | 27 (≈ 111 µM) | – | – |

| Structure (SMILES) | intrinsic clearance, human liver microsomes [mL/min/kg] | intrinsic clearance, rat liver microsomes [mL/min/kg] | MDR1-MDCK efflux ratio | aqueous solubility [µg/mL] | fraction unbound, human plasma | fraction unbound, rat plasma |
| --- | --- | --- | --- | --- | --- | --- |
| CN1C(=O)[C@H]2CN(CC3=CC[C@H]4C[C@@H]3C4(C)C)C[C@H]2C1=O | 207 | 2390 | 0.768 | – | – | – |
| Cc1ncc(CN(C)c2nnc(C)c(C)c2C#N)s1 | – | – | – | 28.6 (≈ 105 µM) | – | – |
| CCNC(=O)c1cc(N2CCC(N3CCCC3=O)CC2)ccn1 | ≤ 4.74 | ≤ 10.7 | – | – | – | – |
| NC(=O)c1noc([C@@H](CCCC2CCCCC2)CC(=O)NO)n1 | 7.31 | – | – | – | – | – |
| O/N=C1/CCCc2c1cnc1ncnn21 | ≤ 4.74 | ≤ 10.7 | 1.67 | – | – | – |
| O=C(Cc1csc(-c2ccc(F)cc2)n1)N1CCC(n2c(=O)[nH]c3ccccc32)CC1 | 346 | 2820 | – | – | – | – |
| Cc1noc(NCc2c(C)nn(C)c2C)n1 | ≤ 4.74 | ≤ 10.7 | 1.34 | – | – | – |
| C[C@H](Cn1nc2c(cc1=O)CCCCC2)NC(=O)Cc1cccs1 | 153 | 817 | – | – | – | – |
| CCCc1ccc(-c2cccc(C(=O)N3CCN(CC(N)=O)CC3)c2)cc1 | 12.6 | 707 | 8.27 | – | – | – |
| O=C(O)CNc1nc(-c2ccccc2)nc2ccccc12 | ≤ 4.74 | 29.4 | 0.737 | 25.4 (≈ 90.8 µM) | – | – |
| COc1ccc(-c2csc3ncnc(Oc4ccc(C)nc4)c23)cc1 | 78.5 | 320 | 0.595 | 7.81 (≈ 22.4 µM) | – | – |
| CC(C)CN(Cc1cnn(C)c1)C(=O)c1cccc(-c2cnccn2)c1 | 448 | 4750 | 7.22 | – | – | – |
| Cc1ccc(C2(O)CCN(Cc3cn(C)c4ccc(F)cc34)CC2)cc1 | 65.2 | 1790 | 0.869 | 49.7 (≈ 141 µM) | – | – |
| Cc1nnc(-c2ccc(N3CCC(Oc4cc(F)ccc4Cl)CC3)nn2)o1 | ≤ 4.74 | – | 0.65 | – | 0.0145 | – |
| Nc1ccc2c(c1)ncn2CCc1ccccc1 | ≤ 4.74 | 28.1 | 0.701 | 38.4 (≈ 162 µM) | – | – |
| COc1ccc(N)cc1N1CCOC1=O | ≤ 4.74 | ≤ 10.7 | – | 32.2 (≈ 155 µM) | – | – |
| CC(C)(C)c1[nH]cnc1/C=c1\[nH]c(=O)/c(=C/c2ccccc2)[nH]c1=O | ≤ 4.74 | 146 | 7.19 | – | – | – |
| C[C@@H]1CN(C(=O)CC(c2ccccc2)c2ccccc2)C[C@H](C)O1 | 36.4 | 1900 | 1.31 | 52.3 (≈ 162 µM) | 0.154 | 0.0523 |
| COCCc1nc(-c2cnc(C3CC3)nc2)n(Cc2ccc(F)cc2)n1 | 8.05 | 1030 | 1.51 | 34.1 (≈ 96.4 µM) | – | – |
| Cc1cc(OCc2ccnc(Cl)c2)nnc1C | ≤ 4.74 | 51.6 | – | – | – | – |
| CCCN1CCCN(C(=O)c2nc3ccccc3[nH]2)CC1 | 19.2 | 169 | – | 49.4 (≈ 172 µM) | – | – |
